Source: patent US12195804B2, “Treatment of squamous cell carcinoma” (Board of Regents, The University of Texas System, priority 2018, dated 2025)

Key:
Assay type in all cases: cell-based, human
HNSCC cell lines [1] = assay: CellTiter-Glo cell viability assay; conditions: 0-200 nM, 72 hours
Protocol: Cell viability assay. […] A CellTiter-Glo luminescent cell viability assay (Promega, Madison, WI) was performed as described previously (Castel et al., 2016; Muellner et al., 2011). Inhibitory concentration (ICs) and area under the curve (AUC) values were calculated using the drexplorer R package with a best-fit dose-response model (Zumsteg et al., 2016). The combination indices were calculated using the Chou-Talalay method (Cal et al., 2017) in CalcuSyn (Biosoft, Cambridge, UK). We tested the reproducibility and robustness of the data generated using three quality control parameters as described previously (Bohnacker et al., 2017). These parameters were the concordance correlation coefficient, location shift, and maximum standard deviation between two biological replicates for three technical and two biological replicates. Based on heuristics from our previous screening studies in lung cancer (Bohnacker et al., 2017), the cut-offs for reproducibility were a concordance correlation coefficient greater than 0.8, a location shift less than 0.9, and a standard deviation less than 0.23 based on the normal mixture fit model. Experiments not satisfying these criteria were repeated. The replicate with the smallest experimental variation measured by the median of standard deviation was chosen as a representative of the replicates, and its IC values served as the final values for subsequent analysis.
Cell lines were classified as sensitive based on IC70 values less than the peak plasma concentration for each drug. To determine if cross-comparison of the PI3K/mTOR inhibitors as a class was feasible, their drug sensitivity patterns were compared with those of three cell cycle kinase inhibitors tested previously (Zhang et al., 2017). The PI3K/mTOR pathway inhibitors clustered separately from the cell cycle inhibitors (FIG. 12C).

HNSCC cell lines [2] = assay: Cell cycle analysis (BrdU/7-AAD flow cytometry); conditions: 50 nM
Protocol: FIGS. 16A-16C: Effects of PI3K/mTOR signaling inhibition on the survival of NOTCH1MUT and NOTCH1WT head and neck squamous cell carcinoma (HNSCC) cell lines in vitro. FIG. 16A. The Annexin V/propidium iodide assay was used to assess apoptosis in HNSCC cells that had the indicated NOTCH1 and PIK3CA mutations and were treated with 500 nM BAY806946. Values are the means {plus minus} standard deviations of three independent experiments. […], unpaired two-tailed Student t-test. FIG. 16B. NOTCH1MUT lines (red text) and NOTCH1WT lines (black text) were treated with increasing concentrations of BAY806946 for 3 hours, and then Western blotting was used to assess levels of p-AKT (S473). FIG. 16C. NOTCH1WT lines (black text), NOTCH1MUT lines (red text), and PIK3CAMUT lines (blue text) were treated with 50 nM GSK2126458 (GSK212) and then pulse-labeled with BrDU and counterstained with 7-AAD for flow cytometry.
Apoptosis and cell cycle assays. […] Data were acquired with a three-laser, 10-color Gallios flow cytometer (Beckman Coulter, Brea, CA) and analyzed using Kaluza software (Beckman Coulter, Brea, CA). […]

[3] = system: PI3K/mTOR pathway proteins; assay: Western blot of PI3K/mTOR pathway proteins; conditions: 4 hours, NOTCH1WT and NOTCH1MUT lines
Protocol: (§1) FIGS. 7A-7D: PI3K/mTOR signaling inhibition induces cell death in NOTCH1^MUT but not NOTCH1^WT head and neck squamous cell carcinoma (HNSCC) cell lines in vitro. FIG. 7A. Annexin V/propidium iodide or BrDU-terminal deoxynucleotidyl transferase (TdT) dUTP nick-end labeling (TUNEL) assays were used to measure apoptosis in HNSCC cells with the indicated NOTCH1 and PIK3CA mutations, which were treated with 50 nM GSK2126458 (GSK212) for 24 or 48 hours, respectively. Values are the means±standard deviations of three independent experiments. *p<0.05, unpaired two-tailed Student t-test. FIG. 7B. […] At 14-21 days after treatment, the cells were fixed and stained, images were captured using the GelCount Tumour Colony Counter, and colony numbers and the colorimetric intensity of the colonies were determined by measuring the optical density (OD) at 570 nm. […] Three NOTCH1^WT lines (black text and bars) and three NOTCH1^MUT lines (red text and bars) were treated with increasing concentrations of GSK212 for 4 hours, and levels of PI3K/mTOR pathway proteins were measured by Western blot analysis.
Western blot analysis. […] Protein expression was detected using a horseradish peroxidase-conjugated secondary antibody (Bio-Rad, Hercules, CA) and electrochemiluminescence reagent (Amersham Biosciences, Pittsburg, PA).

HNSCC cell lines [4] = assay: Colony formation assay; conditions: 48 hours treatment, 14-21 days, NOTCH1MUT compared with NOTCH1WT lines, below peak plasma concentration
Protocol: as §1
Colony formation assays. […] The total colony number and area were counted and analyzed using the ImageJ software program (National Institutes of Health, Bethesda, MD). […]

Structure (SMILES): COc1ncc(-c2ccc3nccc(-c4ccnnc4)c3c2)cc1NS(=O)(=O)c1ccc(F)cc1F [GSK2126458]
- cell viability, NOTCH1MUT and NOTCH1WT cell lines (HNSCC cell lines [1]): differential effects
- sub-G0 fraction (HNSCC cell lines [2]): increased the sub-G0 fraction in only NOTCH1^MUT lines
- G1 arrest (HNSCC cell lines [2]; all cell lines): induced G1 arrest in all cell lines
- target inhibition (PI3K/mTOR pathway proteins) [3]: dose-dependent target inhibition
- number of colonies formed and total cell number (HNSCC cell lines [4]): significantly reduced
